Biological target: T1, JAK3 (Homo sapiens, UniProt P52333)
T1 construct: endogenous in cells; host or cells: Molt4 (ATCC CRL-1582) and Ramos (ATCC CRL-1596), mixed lysate 1:2
T1 sequence (P52333 1-1124): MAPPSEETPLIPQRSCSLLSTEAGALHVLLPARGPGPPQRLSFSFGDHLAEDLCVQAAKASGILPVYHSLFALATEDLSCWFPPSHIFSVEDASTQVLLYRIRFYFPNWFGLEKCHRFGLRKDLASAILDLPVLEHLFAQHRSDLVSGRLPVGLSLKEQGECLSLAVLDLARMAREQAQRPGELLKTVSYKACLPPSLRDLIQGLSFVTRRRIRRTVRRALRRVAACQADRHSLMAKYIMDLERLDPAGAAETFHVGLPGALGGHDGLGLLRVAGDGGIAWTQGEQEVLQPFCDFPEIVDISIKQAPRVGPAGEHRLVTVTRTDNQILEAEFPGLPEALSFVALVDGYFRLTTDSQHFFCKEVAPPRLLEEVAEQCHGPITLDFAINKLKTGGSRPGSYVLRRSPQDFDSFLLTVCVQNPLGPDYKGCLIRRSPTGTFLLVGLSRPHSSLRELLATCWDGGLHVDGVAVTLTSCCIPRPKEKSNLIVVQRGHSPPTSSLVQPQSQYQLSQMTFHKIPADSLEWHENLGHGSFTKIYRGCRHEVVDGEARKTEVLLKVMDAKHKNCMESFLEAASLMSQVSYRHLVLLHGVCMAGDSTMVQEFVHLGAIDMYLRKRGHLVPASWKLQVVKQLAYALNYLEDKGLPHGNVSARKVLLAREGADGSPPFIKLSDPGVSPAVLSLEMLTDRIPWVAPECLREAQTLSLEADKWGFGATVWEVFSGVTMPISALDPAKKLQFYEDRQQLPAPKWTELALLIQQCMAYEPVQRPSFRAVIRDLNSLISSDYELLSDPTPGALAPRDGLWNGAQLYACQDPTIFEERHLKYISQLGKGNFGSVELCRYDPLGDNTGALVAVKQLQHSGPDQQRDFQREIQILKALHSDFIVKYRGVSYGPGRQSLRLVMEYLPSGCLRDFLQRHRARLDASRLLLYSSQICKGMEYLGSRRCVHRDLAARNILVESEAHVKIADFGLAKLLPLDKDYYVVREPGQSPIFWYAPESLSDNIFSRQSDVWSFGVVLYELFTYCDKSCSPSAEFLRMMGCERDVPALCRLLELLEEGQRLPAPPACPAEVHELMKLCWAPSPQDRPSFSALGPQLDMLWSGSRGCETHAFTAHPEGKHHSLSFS
Assay: Kinobeads assay, JAK3
Type: binding
Details: mixed Molt4/Ramos lysate, read-out: Inhibition values (IC50) JAK3
Experimental: The compounds of the present invention as described in the previous examples were tested in a Kinobeads™ assay as described for ZAP-70 (WO-A 2007/137867). Briefly, test compounds (at various concentrations) and the affinity matrix with the immobilized aminopyrido-pyrimidine ligand 24 were added to cell lysate aliquots and allowed to bind to the proteins in the lysate sample. After the incubation time the beads with captured proteins were separated from the lysate. Bound proteins were then eluted and the presence of JAK1, JAK2, JAK3 and TYK2 was detected and quantified using specific antibodies in a dot blot procedure and the Odyssey infrared detection system. Dose response curves for individual kinases were generated and IC50 values calculated. Kinobeads™ assays for ZAP-70 (WO-A 2007/137867) and for kinase selectivity profiling (WO-A 2006/134056) have been previously described.
The affinity matrix was washed two times with 15 mL of lx DP buffer containing 0.2% NP40 (IGEPAL® CA-630, Sigma, #13021) and then resuspended in 1×DP buffer containing 0.2% NP40 (3% beads slurry).
5×DP buffer: 250 mM Tris-HCl pH 7.4, 25% Glycerol, 7.5 mM MgCl2, 750 mM NaCl, 5 mM Na3VO4; filter the 5×DP buffer through a 0.22 μm filter and store in aliquots at −80° C. The 5×DP buffer is diluted with H2O to 1×DP buffer containing 1 mM DTT and 25 mM NaF.
Stock solutions of test compounds were prepared in DMSO. In a 96 well plate […] solution of diluted test compounds at 5 mM in DMSO were prepared. Starting with this solution a 1:3 dilution series (9 steps) was prepared. For control experiments (no test compound) a buffer containing 2% DMSO was used.
Molt4 cells (ATCC catalogue number CRL-1582) and Ramos cells (ATCC catalogue number CRL-1596) were grown in 1 L Spinner flasks (Integra Biosciences, #182101) in suspension in RPMI 1640 medium (Invitrogen, #21875-034) supplemented with 10% Fetal Bovine Serum (Invitrogen) at a density between 0.15×10^6 and 1.2×10^6 cells/mL. Cells were harvested by centrifugation, washed once with 1×PBS buffer (Invitrogen, #14190-094) and cell pellets were frozen in liquid nitrogen and subsequently stored at −80° C. Cells were homogenized in a Potter S homogenizer in lysis buffer: 50 mM Tris-HCl, 0.8% NP40, 5% glycerol, 150 mM NaCl, 1.5 mM MgCl2, 25 mM NaF, 1 mM sodium vanadate, 1 mM DTT, pH 7.5. One complete EDTA-free tablet (protease inhibitor cocktail, Roche Diagnostics, 1873580) per 25 mL buffer was added. The material was dounced 10 times using a mechanized POTTER S, transferred to 50 mL falcon tubes, incubated for 30 minutes on ice and spun down for 10 minutes at 20,000 g at 4° C. (10,000 rpm in Sorvall SLA600, precooled). The supernatant was transferred to an ultracentrifuge (UZ)-polycarbonate tube (Beckmann, 355654) and spun for 1 hour at 100.000 g at 4° C. (33.500 rpm in Ti50.2, precooled). The supernatant was transferred again to a fresh 50 mL falcon tube, the protein concentration was determined by a Bradford assay (BioRad) and samples containing 50 mg of protein per aliquot were prepared. The samples were immediately used for experiments or frozen in liquid nitrogen and stored frozen at −80° C.
Cell lysate (approximately 50 mg protein per plate) was thawed in a water bath at room temperature and then stored on ice. To the thawed cell lysate 1×DP 0.8% NP40 buffer containing protease inhibitors (1 tablet for 25 mL buffer; EDTA-free protease inhibitor cocktail; Roche Diagnostics 1873580) was added in order to reach a final protein concentration of 10 mg/mL total protein. The diluted cell lysate was stored on ice. Mixed Molt4/Ramos lysate was prepared by combining one volume of Molt4 lysate and two volumes of Ramos lysate (ratio 1:2).
To a 96 well filter plate (Multiscreen HTS, BV Filter Plates, Millipore #MSBVN1250) were added per well: 100 μL affinity matrix (3% beads slurry), […], of compound solution, and 50 μL of diluted lysate. […]

| IC50 [nM] | Structure (SMILES) |
| --- | --- |
| < 100 | Cn1cc(-c2cc(F)cc([C@@H](CO)Nc3nc(Nc4cnn(CCO)c4)ncc3Cl)c2)cn1 [Compound 152] |
| < 100 | COc1cccc([C@@H](CO)Nc2nc(Nc3cnn(CC(=O)N4CCOCC4)c3)ncc2Cl)c1 [Compound 102] |
| < 100 | CNC(=O)Cn1cc(Nc2ncc(Cl)c(N[C@H](CO)c3cc(F)ccc3F)n2)cn1 [Compound 141] |
| < 100 | Cn1cc(Nc2ncc(Cl)c(N[C@H](CO)c3cccc(N4CCOCC4=O)c3F)n2)cn1 [Compound 162] |
| < 100 | CNC(=O)Cn1cc(Nc2ncc(Cl)c(N[C@H](CO)c3ccccc3F)n2)cn1 [Compound 100] |
| 100 to 1000 | Cn1cc(-c2cccc([C@@H](CO)Nc3nc(Nc4cnn(CCO)c4)ncc3Cl)c2)cn1 [Compound 151] |
| 100 to 1000 | Cc1cnc(Nc2cnn(C)c2)nc1N[C@H](CO)c1cc(F)cc(F)c1 [Compound 164] |
| < 100 | CCn1cc(Nc2ncc(Cl)c(N[C@H](CO)c3ccccc3OC)n2)cn1 [Compound 95] |
| < 100 | Cn1cc(Nc2ncc(Cl)c(N[C@H](CO)c3cc(F)ccc3F)n2)cn1 [Compound 139] |
| < 100 | CNC(=O)Cn1cc(Nc2ncc(Cl)c(NC(CO)c3cc(F)cc(F)c3)n2)cn1 (stereo not shown) [Compound 123] |
| < 100 | Cc1cnc(Nc2cnn(C)c2)nc1N[C@H](CO)c1cc(F)ccc1F [Compound 163] |
| 100 to 1000 | Cn1cc(Nc2ncc(C(F)(F)F)c(NC(C)(CO)c3ccccc3)n2)cn1 (stereo not shown) [Compound 8] |
| < 100 | OCCn1cc(Nc2ncc(F)c(N[C@H](CO)c3ccccc3)n2)cn1 [Compound 10] |
| < 100 | O=C(Cn1cc(Nc2ncc(Cl)c(N[C@H](CO)c3ccccc3F)n2)cn1)N1CCOCC1 [Compound 103] |
| < 100 | O=C(Cn1cc(Nc2ncc(Cl)c(N[C@H](CO)c3cccnc3)n2)cn1)N1CCOCC1 [Compound 104] |
| < 100 | CNC(=O)Cn1cc(Nc2ncc(Cl)c(N[C@H](CO)c3cc(F)cc(F)c3)n2)cn1 [Compound 145] |
| < 100 | CC(C)NC(=O)Cn1cc(Nc2ncc(Cl)c(N[C@H](CO)c3ccccc3F)n2)cn1 [Compound 115] |

| IC50 [nM] | Structure (SMILES) |
| --- | --- |
| 100 to 1000 | Cn1cc(Nc2ncc(F)c(N[C@H](CO)c3cc(F)cc(-c4cnn(C)c4)c3)n2)cn1 [Compound 150] |
| 100 to 1000 | Cn1cc(Nc2ncc(Cl)c(N[C@H](CO)c3cccc(-c4cnn(C)c4)c3)n2)cn1 [Compound 136] |
| < 100 | Cn1cc(Nc2ncc(Cl)c(NC(CO)c3cc(F)ccc3F)n2)cn1 (stereo not shown) [Compound 129] |
| < 100 | CNC(=O)Cn1cc(Nc2ncc(Cl)c(N[C@H](CO)c3ccccc3OC)n2)cn1 [Compound 98] |
| < 100 | CNC(=O)Cn1cc(Nc2ncc(Cl)c(NC(CO)c3ccccc3Cl)n2)cn1 (stereo not shown) [Compound 119] |
| < 100 | OCCn1cc(Nc2ncc(Cl)c(N[C@H](CO)c3ccccc3)n2)cn1 [Compound 9] |
| < 100 | O=C(Cn1cc(Nc2ncc(F)c(N[C@H](CO)c3ccccc3)n2)cn1)N1CCOCC1 [Compound 112] |
| < 100 | CN1CCC(n2cc(Nc3ncc(Cl)c(N[C@H](CO)c4ccccc4)n3)cn2)C1=O (stereo partly shown) [Compound 135] |
| < 100 | Cn1cc(Nc2ncc(Cl)c(NC(CO)c3cc(F)cc(F)c3)n2)cn1 (stereo not shown) [Compound 121] |
| 100 to 1000 | NC(=O)Cn1cc(Nc2ncc(F)c(N[C@H](CO)c3ccccc3)n2)cn1 [Compound 108] |
| < 100 | CC(C)n1cc(Nc2ncc(Cl)c(N[C@H](CO)c3ccccc3F)n2)cn1 [Compound 110] |
| 100 to 1000 | Cn1cc(Nc2ncc(Cl)c(N[C@H](CO)c3cc(F)cc(-c4cnn(C)c4)c3)n2)cn1 [Compound 137] |
| < 100 | Cn1cc(Nc2ncc(Cl)c(N[C@H](CO)c3ccccc3)n2)cn1 [Compound 4] |
| < 100 | OC[C@@H](Nc1nc(Nc2cnn(CC(F)F)c2)ncc1Cl)c1ccccc1F [Compound 165] |
| 100 to 1000 | CN(C)C(=O)C(Nc1nc(Nc2cnn(CCO)c2)ncc1Cl)c1ccccc1F (stereo not shown) [Compound 127] |
| < 100 | C[C@@H](CO)NC(=O)Cn1cc(Nc2ncc(Cl)c(N[C@H](CO)c3ccccc3F)n2)cn1 [Compound 116] |
| < 100 | OCCn1cc(Nc2ncc(F)c(N[C@H](CO)c3cc(F)cc(F)c3)n2)cn1 [Compound 159] |

From patent publication US20140179664A1, “Heterocyclyl Pyrimidine Analogues As JAK Inhibitors” (Cellzome Limited, priority 2011, published 2014)
